Data taken from patent US20200407398A1, “Short Proline-Rich Lipopeptide Potentiates Minocycline and Rifampicin Against Multidrug-and Extensively Drug-Resistant Pseudomonas Aeruginosa” (priority 2018, published 2020).
Square brackets hold non-standard residues; d marks the D form. Peptide text beside a SMILES is read from it. * marks the point of attachment. Lauroyl = CCCCCCCCCCCC(=O)*

What was measured:
[1] = tested on: wild-type and MDR/XDR P. aeruginosa clinical isolates; details: for interaction with minocycline (in words) / interaction with rifampicin (in words): checkerboard assay, P. aeruginosa; for MIC (lipopeptide alone): wild-type and clinical isolates of P. aeruginosa
[2] = tested on: P. aeruginosa 264-104354 (MDR/XDR); test: microbe, parasite or virus in culture; details: P. aeruginosa 264-104354; for MIC (agent alone): antibiotic or lipopeptide alone
Description: (§1) We evaluated the activity of SPRLPs in combination with fifteen clinically-used antibiotics against P. aeruginosa. Antibiotics tested included fluoroquinolones (moxifloxacin, ciprofloxacin and levofloxacin), aminoglycosides (gentamicin, tobramycin and amikacin), cephalosporins (ceftazidime and cefotaxime), carbapenems (meropenem and doripenem), aztreonam, rifampicin, minocycline, colistin and fosfomycin. The SPRLPs were screened initially at a fixed concentration of 8 μg/mL (5 μM) in combination with antibiotics against wild-type P. aeruginosa PAO1. We assessed potentiation by at least a four-fold absolute MIC reduction of the antibiotic, after which synergism was further validated by a conventional checkerboard assay. A fractional inhibitory concentration (FIC) index of ≤0.5, 0.5<x≤4 or >4 was interpreted as synergistic, indifferent or antagonistic interaction, respectively (31). FIC index was obtained by adding the FIC values of the antibiotic and the SPRLP adjuvant. FIC of antibiotics was calculated by dividing the MIC of the antibiotic in the presence of the adjuvant by the MIC of the antibiotic alone. Similarly, the FIC of adjuvant was calculated via dividing the MIC of the adjuvant in the presence of the antibiotic by the MIC of the adjuvant alone.
(§2) Isolates used in this study were either obtained from the American Type Culture Collection (ATCC), the Canadian National Intensive Care Unit (CAN-ICU) surveillance study (27) or the Canadian Ward Surveillance (CANWARD) study (28). Clinical isolates belonging to the CAN-ICU and CANWARD studies were recovered from patients suffering a presumed infectious disease entering or admitted in a participating medical center across Canada during the time of study. MDR P. aeruginosa strains in this study refer to those that are resistant to aminoglycosides, fluoroquinolones, cephalosporins, and carbapenems while XDR strains are those that are resistant to aminoglycosides, fluoroquinolones, cephalosporins, carbapenems, aztreonam and penicillin+β-lactamase inhibitor combination (39, 40).
(§3) Microbroth dilution susceptibility test following the Clinical and Laboratory Standards Institute (CLSI) guidelines (32) was performed to assess the in vitro antibacterial activity of SPRLPs. Overnight grown bacterial cultures were diluted in saline to achieve a 0.5 McFarland turbidity, followed by 1:50 dilution in Mueller-Hinton broth (MHB) for inoculation to a final concentration of 5×10^5 colony forming units/mL. The assay was done on a 96-well plate to which the agents of interest were 2-fold serially diluted in MHB and incubated with equal volumes of inoculum at 37° C. for 18 hours. MIC was determined as the lowest concentration to inhibit visible bacterial growth in form of turbidity, which was confirmed using EMax Plus microplate reader (Molecular Devices, USA) at a wavelength of 590 nm. The well containing MHB broth with or without bacterial cells was used as positive or negative control, respectively.
(§4) The assay was performed on a 96-well plate, to which the agents of interest was 2-fold serially diluted in working MHB. Prior to serial dilution, SPRLP was added to the working MHB media so that a fixed final concentration of 8 μg/mL (5 μM) SPRLP per well was achieved. To ensure that the assay was working, the MIC determination test of the studied antibiotic (without SPRLP) was included on the same plate. Similar MIC results between the assay comparator and an independent MIC determination test (on a different plate) ensured validity of the synergy test. Overnight grown bacterial cultures were diluted in saline to 0.5 McFarland turbidity, followed by 1:50 dilution in MHB (without SPRLP) and inoculation into each well to a final concentration of approximately 5×10^5 colony forming units/mL. Wells containing only MHB (without SPRLP) with or without bacterial cells were used as positive or negative control, respectively.

[3] = tested on: P. aeruginosa 91433 (colistin-resistant, MDR/XDR); test: microbe, parasite or virus in culture; details: P. aeruginosa 91433 (colistin-resistant); for MIC (agent alone): antibiotic or lipopeptide alone
Description: as §1, §2, §3, §4

[4] = tested on: P. aeruginosa 260-97103 (MDR/XDR); test: microbe, parasite or virus in culture
Description: as §1, §2, §3, §4

[5] = tested on: P. aeruginosa 100036 (MDR/XDR); test: microbe, parasite or virus in culture; details: P. aeruginosa 100036; for MIC (agent alone): antibiotic or lipopeptide alone
Description: as §1, §2, §3, §4

[6] = tested on: P. aeruginosa 101885 (MDR/XDR); test: microbe, parasite or virus in culture
Description: as §1, §2, §3, §4

[7] = tested on: P. aeruginosa 262-101856 (MDR/XDR); test: microbe, parasite or virus in culture; details: P. aeruginosa 262-101856; for Absolute MIC MIN: MIC of minocycline in the presence of 8 μg/mL (5 μM) lipopeptide; for MIC (agent alone): antibiotic or lipopeptide alone
Description: as §1, §2, §3, §4

[8] = tested on: P. aeruginosa 101243 (colistin-resistant, MDR/XDR); test: microbe, parasite or virus in culture
Description: as §1, §2, §3, §4

[9] = tested on: P. aeruginosa 259-96918 (MDR/XDR); test: microbe, parasite or virus in culture; details: P. aeruginosa 259-96918; for MIC (agent alone): antibiotic or lipopeptide alone
Description: as §1, §2, §3, §4

[10] = MIC of minocycline in the presence of 8 μg/mL (5 μM) lipopeptide
[11] = MIC of rifampicin in the presence of 8 μg/mL (5 μM) lipopeptide
[12] = degree of minocycline potentiation in the presence of 8 μg/mL (5 μM) lipopeptide
[13] = degree of rifampicin potentiation in the presence of 8 μg/mL (5 μM) lipopeptide
[14] = P. aeruginosa 260-97103, degree of minocycline potentiation in the presence of 8 μg/mL (5 μM) lipopeptide
[15] = P. aeruginosa 260-97103, degree of rifampicin potentiation in the presence of 8 μg/mL (5 μM) lipopeptide
[16] = P. aeruginosa 101885, degree of minocycline potentiation in the presence of 8 μg/mL (5 μM) lipopeptide
[17] = P. aeruginosa 101885, degree of rifampicin potentiation in the presence of 8 μg/mL (5 μM) lipopeptide
[18] = P. aeruginosa 101243 (colistin-resistant), degree of minocycline potentiation in the presence of 8 μg/mL (5 μM) lipopeptide
[19] = P. aeruginosa 101243 (colistin-resistant), degree of rifampicin potentiation in the presence of 8 μg/mL (5 μM) lipopeptide

In the case of CCCCCCCCCCCC(=O)N1CCC[C@@H]1C(=O)N[C@H](CCCNC(=N)N)C(=O)N1CCC[C@@H]1C(=O)N[C@H](CCCNC(=N)N)C(=O)N1CCC[C@@H]1C(=O)N[C@H](CCCNC(=N)N)C(=O)N1CCC[C@@H]1C(N)=O [C12-prp] (Lauroyl-[dP][dR][dP][dR][dP][dR][dP]-NH2), the “interaction with minocycline (in words)” value [1] is reported as “potentiated”, the “interaction with rifampicin (in words)” value [1] is reported as “potentiated” and the “MIC (lipopeptide alone)” value [1] is reported as greater than 128 µg/mL. For the same molecule, the “Absolute MIC MIN” value [2, 10] was 4 µg/mL, the “Absolute MIC RMP” value [2, 11] was 2 µg/mL and the “MIC (agent alone)” value [2] was greater than 128 µg/mL. For the same molecule, the Potentiation [2, 12] was 8-fold, the Potentiation [2, 13] was 4-fold and the “Absolute MIC MIN” value [3, 10] was 4 µg/mL. The “Absolute MIC RMP” value [3, 11] was 2 µg/mL, the “MIC (agent alone)” value [3] was greater than 128 µg/mL and the Potentiation [3, 12] was 8-fold. For the same molecule, the Potentiation [3, 13] was 8-fold, the “Absolute MIC MIN” value ([4]; P. aeruginosa 260-97103, MIC of minocycline in the presence of 8 μg/mL (5 μM) lipopeptide) was 2 µg/mL and the “Absolute MIC RMP” value ([4]; P. aeruginosa 260-97103, MIC of rifampicin in the presence of 8 μg/mL (5 μM) lipopeptide) was 4 µg/mL. The “MIC (agent alone)” value ([4]; P. aeruginosa 260-97103, antibiotic or lipopeptide alone) was greater than 128 µg/mL, the Potentiation [4, 14] was 8-fold and the Potentiation [4, 15] was 4-fold. For the same molecule, the “Absolute MIC MIN” value [5, 10] was 8 µg/mL, the “Absolute MIC RMP” value [5, 11] was 4 µg/mL and the “MIC (agent alone)” value [5] was greater than 128 µg/mL. For the same molecule, the Potentiation [5, 12] was 2-fold, the Potentiation [5, 13] was 4-fold and the “Absolute MIC MIN” value ([6]; P. aeruginosa 101885, MIC of minocycline in the presence of 8 μg/mL (5 μM) lipopeptide) was 8 µg/mL. The “Absolute MIC RMP” value ([6]; P. aeruginosa 101885, MIC of rifampicin in the presence of 8 μg/mL (5 μM) lipopeptide) was 4 µg/mL, the “MIC (agent alone)” value ([6]; P. aeruginosa 101885, antibiotic or lipopeptide alone) was greater than 128 µg/mL and the Potentiation [6, 16] was 2-fold. For the same molecule, the Potentiation [6, 17] was 4-fold, the “Absolute MIC MIN” value [7] was 16 µg/mL and the “Absolute MIC RMP” value [7, 11] was 256 µg/mL. The “MIC (agent alone)” value [7] was greater than 128 µg/mL, the Potentiation [7, 12] was 4-fold and the Potentiation [7, 13] was 2-fold. The “Absolute MIC MIN” value ([8]; P. aeruginosa 101243 (colistin-resistant), MIC of minocycline in the presence of 8 μg/mL (5 μM) lipopeptide) was 2 µg/mL, the “Absolute MIC RMP” value ([8]; P. aeruginosa 101243 (colistin-resistant), MIC of rifampicin in the presence of 8 μg/mL (5 μM) lipopeptide) was 0.5 µg/mL and the “MIC (agent alone)” value ([8]; P. aeruginosa 101243 (colistin-resistant), antibiotic or lipopeptide alone) was greater than 128 µg/mL. For the same molecule, the Potentiation [8, 18] was 2-fold, the Potentiation [8, 19] was 8-fold and the “Absolute MIC MIN” value [9, 10] was 4 µg/mL. The “Absolute MIC RMP” value [9, 11] was 2 µg/mL, the “MIC (agent alone)” value [9] was greater than 128 µg/mL and the Potentiation [9, 12] was 4-fold. For the same molecule, the Potentiation [9, 13] was 8-fold.

For CCCCCCCCCCCC(=O)N1CCC[C@H]1C(=O)N[C@@H](CCCNC(=N)N)C(=O)N1CCC[C@H]1C(=O)N[C@@H](CCCNC(=N)N)C(=O)N1CCC[C@H]1C(=O)N[C@@H](CCCNC(=N)N)C(=O)N1CCC[C@H]1C(N)=O [Compound C12-PRP, CH3(CH2)10CO-PRPRPRP-NH2] (Lauroyl-PRPRPRP-NH2), the “strains in which MIC of rifampicin reached susceptibility breakpoint” value ([1]; 8 μg/mL (5 μM) lipopeptide, breakpoint ≤1 μg/mL (CLSI, Staphylococcus spp.)) was “five out of nine”, the “strains in which MIC of minocycline was reduced below susceptibility breakpoint” value ([1]; 8 μg/mL (5 μM) lipopeptide, breakpoint ≤4 μg/mL (CLSI, Acinetobacter spp.)) was “seven out of nine” and the “interaction with minocycline (in words)” value [1] was “strongly synergistic”. For the same molecule, the “interaction with rifampicin (in words)” value [1] was “significant potentiation”, the “MIC (lipopeptide alone)” value [1] was “inactive” and the “MIC (agent alone)” value [2] was greater than 128 µg/mL. For the same molecule, the Potentiation [2, 12] was 16-fold, the Potentiation [2, 13] was 16-fold and the “MIC (agent alone)” value [3] was greater than 128 µg/mL. The Potentiation [3, 12] was 4-fold, the Potentiation [3, 13] was 16-fold and the “MIC (agent alone)” value ([4]; 260-97103 (MDR/XDR)) was 128 µg/mL. The Potentiation [4, 14] was 16-fold, the Potentiation [4, 15] was 8-fold and the FIC index ([4]; P. aeruginosa 260-97103, lipopeptide in combination with minocycline (MIN)) was 0.12. For the same molecule, the FIC index ([4]; P. aeruginosa 260-97103, lipopeptide in combination with rifampicin (RMP)) was 0.16, the “MIC (agent alone)” value [5] was greater than 128 µg/mL and the Potentiation [5, 12] was 4-fold. The Potentiation [5, 13] was 16-fold, the “MIC (agent alone)” value ([6]; 101885 (MDR/XDR)) was 64 µg/mL and the Potentiation [6, 16] was 4-fold. For the same molecule, the Potentiation [6, 17] was 8-fold, the FIC index ([6]; P. aeruginosa 101885, lipopeptide in combination with minocycline (MIN)) was 0.37 and the FIC index ([6]; P. aeruginosa 101885, lipopeptide in combination with rifampicin (RMP)) was 0.25. The “Absolute MIC MIN” value [7] was 16 µg/mL, the “MIC (agent alone)” value [7] was greater than 128 µg/mL and the Potentiation [7, 12] was 4-fold. The Potentiation [7, 13] was “none”, the “MIC (agent alone)” value ([8]; 101243 (colistin-resistant, MDR/XDR)) was 128 µg/mL and the Potentiation [8, 18] was 4-fold. For the same molecule, the Potentiation [8, 19] was 32-fold, the FIC index ([8]; P. aeruginosa 101243 (colistin-resistant), lipopeptide in combination with minocycline (MIN)) was 0.31 and the FIC index ([8]; P. aeruginosa 101243 (colistin-resistant), lipopeptide in combination with rifampicin (RMP)) was 0.09. For the same molecule, the “MIC (agent alone)” value [9] was greater than 128 µg/mL, the Potentiation [9, 12] was 8-fold and the Potentiation [9, 13] was 8-fold.
